Where two headings read alike, the source gives them in different places.
How the values were obtained:
[1] = biological target: T1, Chicken α9α10 nAChR (Gallus gallus, UniProt Q9I8C7+Q9PTS8); assay: Two-electrode voltage clamp, recombinant heteromeric receptor in X. laevis oocytes; assay type: cell-based; conditions: for Emax: read-out: Efficacy (maximal response as % of that elicited by 1 mM ACh), Chicken α9α10
T1 construct: expressed in transfected cells; host or cells: Xenopus laevis oocytes (cRNA injection, 1:1 molar ratio)
Procedure: (§1) For expression studies, rat and chicken α9 and α10 nAChR subunits subcloned into a modified pGEMHE vector were used. Capped cRNAs were in vitro transcribed from linearized plasmid DNA templates using RiboMAX™ Large Scale RNA Production System (Promega, Madison, WI, USA). The maintenance of X. laevis and the preparation and cRNA injection of stage V and VI oocytes have been described in detail elsewhere (Verbitsky et al., [2000]). Typically, oocytes were injected with 50 nl of RNase-free water containing 0.01–1.0 ng of cRNA (at a 1:1 molar ratio for heteromeric receptors) and maintained in Barth’s solution [in mM: NaCl 88, Ca(NO3)2 0.33, CaCl2 0.41, KCl 1, MgSO4 0.82, NaHCO3 2.4, HEPES 10] at 18°C. Electrophysiological recordings were performed 2–6 days after cRNA injection under a two-electrode voltage clamp with an Oocyte Clamp OC-725B or C amplifier (Warner Instruments Corporation, Hamden, CT, USA). Recordings were filtered at a corner frequency of 10 Hz using a 900 BT Tunable Active Filter (Frequency Devices Inc., Ottawa, IL, USA). Data acquisition was performed using a Patch Panel PP-50 LAB/1 interphase (Warner Instruments Corp., Hamden, CT, USA) at a rate of 10 points per second. Both voltage and current electrodes were filled with 3 M KCl and had resistances of ~1 MΩ. Data were analyzed using Clampfit from the pClamp 6.1 software. During electrophysiological recordings, oocytes were continuously superfused (~15 ml/min) with normal frog saline composed of: 115 mM NaCl, 2.5 mM KCl, 1.8 mM CaCl2, and 10 mM HEPES buffer, pH 7.2. Drugs were added to the perfusion solution for the application. The membrane potential was clamped to −70 mV. To minimize activation of the endogenous Ca^2+ sensitive chloride current (Elgoyhen et al., [2001]), all experiments were performed in oocytes incubated with the Ca^2+ chelator 1,2-bis (2-aminophenoxy) ethane-N,N,N’,N’-tetraacetic acid-acetoxymethyl ester (BAPTA-AM, 100 μM) for 3 h before electrophysiological recordings. […] The mean and SEM of peak current responses are presented. Agonist concentration-response curves were iteratively fitted, using Prism 6 software (GraphPad Software Inc., La Jolla, CA, USA), with the equation: I/Imax = A^nh/(A^nH + EC50^nH), where I is the peak inward current evoked by agonist at concentration A; Imax is the current evoked by the concentration of agonist eliciting a maximal response; EC50 is the concentration of agonist inducing half-maximal current response, and nH is the Hill coefficient. An equation of the same form was used to analyze the concentration dependence of antagonist induced blockage.

[2] = biological target: T2, Rat α9α10 nAChR (Rattus norvegicus, UniProt P43144+Q9JLB5); assay: as above; assay type: cell-based; conditions: for Efficacy (maximal response as % of that elicited by 1 mM ACh) / EC50: Rat α9α10; for Efficacy (maximal response as % of that elicited by 1 mM ACh) / EC50 / Emax: mean ± SEM; for EC50: −70 mV, BAPTA-AM treated oocytes; for Emax: read-out: Efficacy (maximal response as % of that elicited by 1 mM ACh), Rat α9α10
T2 construct: expressed in transfected cells; host or cells: Xenopus laevis oocytes (cRNA injection, 1:1 molar ratio)
Procedure: as §1

[3] = biological target: rat α9–chicken α10 hybrid receptor (Rα9-Cα10) (UniProt P43144+Q9I8C7); assay: Two-electrode voltage clamp, hybrid receptor in X. laevis oocytes; assay type: cell-based; conditions: mean ± SEM
Procedure: as §1

[4] = biological target: T1, Chicken α9α10 nAChR; set-up: method as in Elgoyhen et al., 2001; Lipovsek et al., 2012; conditions: previous work, ref Elgoyhen et al., 2001, Lipovsek et al., 2012; cited from earlier work
[5] = biological target: T3, rat α9α10x chimeric receptor (Rattus norvegicus, UniProt P43144+Q9JLB5, A264D/A292P/A308T/A312F/A328P/E329N/F253L/F325Y/H335A/I246L/I275V/I289S/I304M/I310V/I323L/L250F/L309M/M279L/M319L/N295S/R331H/S258A/S293A/V320I/Y260H); assay: Two-electrode voltage clamp, chimeric receptor in X. laevis oocytes; assay type: cell-based
T3 construct: expressed in transfected cells; host or cells: Xenopus laevis oocytes (cRNA injection)
Procedure: as §1
The α10W55T mutant subunit was produced as previously described (Boffi et al., [2017]) using Quick change XL II kit (Stratagene, La Jolla, CA, USA). […]

[6] = biological target: T4, Rat α9 homomeric nAChR (Rattus norvegicus, UniProt P43144); assay: Two-electrode voltage clamp, recombinant homomeric receptor in X. laevis oocytes; assay type: cell-based
T4 construct: expressed in transfected cells; host or cells: Xenopus laevis oocytes (cRNA injection)
Procedure: as §1

[7] = biological target: Chicken α9 homomeric nAChR (Gallus gallus, UniProt Q9PTS8); assay: as above; assay type: cell-based; conditions: for EC50: mean ± SEM
Procedure: as §1

[8] = biological target: Chicken α10 homomeric nAChR (Gallus gallus, UniProt Q9I8C7); assay: as above; assay type: cell-based; conditions: for EC50: mean ± SEM
Procedure: as §1

[9] = biological target: chicken α9–rat α10 hybrid receptor (Cα9-Rα10) (UniProt Q9JLB5+Q9PTS8); assay: Two-electrode voltage clamp, hybrid receptor in X. laevis oocytes; assay type: cell-based; conditions: mean ± SEM
Procedure: as §1

[10] = biological target: rat α9α10W55T receptor (Rα9-Rα10W55T) (Rattus norvegicus, UniProt P43144+Q9JLB5, W81T); assay: Two-electrode voltage clamp, mutant receptor in X. laevis oocytes; assay type: cell-based; conditions: mean ± SEM
Procedure: For expression studies, rat and chicken α9 and α10 nAChR subunits subcloned into a modified pGEMHE vector were used. Capped cRNAs were in vitro transcribed from linearized plasmid DNA templates using RiboMAX™ Large Scale RNA Production System (Promega, Madison, WI, USA). The maintenance of X. laevis and the preparation and cRNA injection of stage V and VI oocytes have been described in detail elsewhere (Verbitsky et al., [2000]). Typically, oocytes were injected with 50 nl of RNase-free water containing 0.01–1.0 ng of cRNA (at a 1:1 molar ratio for heteromeric receptors) and maintained in Barth’s solution [in mM: NaCl 88, Ca(NO3)2 0.33, CaCl2 0.41, KCl 1, MgSO4 0.82, NaHCO3 2.4, HEPES 10] at 18°C. Electrophysiological recordings were performed 2–6 days after cRNA injection under a two-electrode voltage clamp with an Oocyte Clamp OC-725B or C amplifier (Warner Instruments Corporation, Hamden, CT, USA). Recordings were filtered at a corner frequency of 10 Hz using a 900 BT Tunable Active Filter (Frequency Devices Inc., Ottawa, IL, USA). Data acquisition was performed using a Patch Panel PP-50 LAB/1 interphase (Warner Instruments Corp., Hamden, CT, USA) at a rate of 10 points per second. Both voltage and current electrodes were filled with 3 M KCl and had resistances of ~1 MΩ. Data were analyzed using Clampfit from the pClamp 6.1 software. […]

[11] = system: mouse outer hair cells; assay: tissue or blood; conditions: read-out: Efficacy (maximum response normalized to maximal peak response to 3 mM ACh)
Procedure: (§2) Chicken auditory organ (basilar papilla) was dissected from the temporal bone of embryonic chickens (white Leghorns either sex, 17–20 days in ovo). The tegmentum vasculosum was removed and the tectorial membrane was stripped from the basilar papilla with most of the short hair cells (SHCs) still attached. This “tectorial preparation” was then inverted and secured in the recording chamber by spring clips. SHCs were recorded in a region 25–50% the distance from the apical (lagenar) to the basal tip of the basilar papilla of the chicken. Apical turns of the organ of Corti were excised from BALB/c mice of either sex between postnatal day 11 (P11) and P13 (around the onset of hearing in altricial rodents). At this age, outer hair cells (OHCs) are already innervated by the MOC fibers (Pujol et al., [1998]; Simmons, [2002]). The tectorial membrane was removed and the organ of Corti was positioned under an insect pin affixed to a cover-slip with a drop of Sylgard.
(§3) Basilar papilla and cochlear preparations were placed into a chamber on the stage of an upright microscope (Olympus BX51WI, Center Valley, PA, USA) at room temperature and used within 2 h. Cells were visualized on a monitor via a water immersion objective (60× magnification), differential interference contrast optics, and a CCD camera (Andor iXon 885, Belfast, UK). […]

[12] = system: chicken short hair cells; assay: tissue or blood; conditions: Gallus gallus, read-out: Efficacy (maximum response normalized to maximal peak response to 3 mM ACh)
Procedure: as §2, §3

[13] = Chicken α9α10, mean ± SEM, read-out: EC50
[14] = α9α10x chimeric receptor, mean ± SEM

Chain of chicken α9–rat α10 hybrid receptor (Cα9-Rα10) (Q9PTS8 28-484): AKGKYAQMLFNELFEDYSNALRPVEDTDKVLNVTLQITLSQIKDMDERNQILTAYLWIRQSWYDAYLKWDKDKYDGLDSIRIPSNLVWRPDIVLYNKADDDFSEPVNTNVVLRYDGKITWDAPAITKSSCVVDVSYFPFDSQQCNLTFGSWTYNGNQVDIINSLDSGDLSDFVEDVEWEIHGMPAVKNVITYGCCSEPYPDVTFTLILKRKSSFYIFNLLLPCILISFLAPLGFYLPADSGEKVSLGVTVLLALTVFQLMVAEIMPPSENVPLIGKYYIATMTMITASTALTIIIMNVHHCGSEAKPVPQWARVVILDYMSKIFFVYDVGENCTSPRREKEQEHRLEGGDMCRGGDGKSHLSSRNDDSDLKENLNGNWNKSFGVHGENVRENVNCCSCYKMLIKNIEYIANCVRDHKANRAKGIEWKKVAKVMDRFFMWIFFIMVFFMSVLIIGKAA
Chain of chicken α9–rat α10 hybrid receptor (Cα9-Rα10) (Q9JLB5 25-447): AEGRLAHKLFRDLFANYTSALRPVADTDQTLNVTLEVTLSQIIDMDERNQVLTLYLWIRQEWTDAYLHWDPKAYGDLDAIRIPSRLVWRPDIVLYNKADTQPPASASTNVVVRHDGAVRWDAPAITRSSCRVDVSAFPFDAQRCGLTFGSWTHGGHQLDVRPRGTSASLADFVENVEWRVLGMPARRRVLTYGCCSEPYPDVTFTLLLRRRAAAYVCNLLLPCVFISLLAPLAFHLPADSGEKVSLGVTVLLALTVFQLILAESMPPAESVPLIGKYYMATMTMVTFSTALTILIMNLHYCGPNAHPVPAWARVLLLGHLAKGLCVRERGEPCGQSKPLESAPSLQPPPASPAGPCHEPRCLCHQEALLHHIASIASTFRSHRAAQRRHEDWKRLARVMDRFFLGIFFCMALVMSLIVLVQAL
Chain of Chicken α9 homomeric nAChR (Q9PTS8 28-484): as the sequence (Q9PTS8 28-484) above
T1 sequence (Q9PTS8 28-484): as above
T1 sequence (Q9I8C7 27-452): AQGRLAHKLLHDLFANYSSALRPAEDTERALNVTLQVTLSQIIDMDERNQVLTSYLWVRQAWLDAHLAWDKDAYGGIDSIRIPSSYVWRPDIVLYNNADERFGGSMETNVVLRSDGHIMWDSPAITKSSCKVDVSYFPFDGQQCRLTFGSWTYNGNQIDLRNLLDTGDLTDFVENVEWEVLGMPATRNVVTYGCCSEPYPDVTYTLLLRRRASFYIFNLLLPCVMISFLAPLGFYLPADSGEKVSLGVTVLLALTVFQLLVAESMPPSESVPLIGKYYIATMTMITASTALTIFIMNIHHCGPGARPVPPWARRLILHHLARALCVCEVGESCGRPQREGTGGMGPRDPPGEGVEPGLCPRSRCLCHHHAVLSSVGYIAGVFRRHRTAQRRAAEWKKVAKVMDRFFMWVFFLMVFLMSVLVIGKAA
Chain of rat α9–chicken α10 hybrid receptor (Rα9-Cα10) (P43144 26-479): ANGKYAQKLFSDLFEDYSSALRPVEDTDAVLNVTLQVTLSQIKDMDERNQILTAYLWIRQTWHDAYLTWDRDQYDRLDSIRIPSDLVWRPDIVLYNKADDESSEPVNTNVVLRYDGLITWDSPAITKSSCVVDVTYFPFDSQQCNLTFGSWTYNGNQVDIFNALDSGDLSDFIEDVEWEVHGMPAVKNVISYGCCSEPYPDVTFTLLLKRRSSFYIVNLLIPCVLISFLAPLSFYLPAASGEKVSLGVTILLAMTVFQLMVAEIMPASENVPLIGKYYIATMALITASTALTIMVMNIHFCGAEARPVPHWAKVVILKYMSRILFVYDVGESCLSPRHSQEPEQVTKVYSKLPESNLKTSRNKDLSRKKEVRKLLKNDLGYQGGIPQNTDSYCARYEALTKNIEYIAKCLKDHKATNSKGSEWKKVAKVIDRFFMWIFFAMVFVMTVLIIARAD
Chain of rat α9–chicken α10 hybrid receptor (Rα9-Cα10) (Q9I8C7 27-452): as the sequence (Q9I8C7 27-452) above
T2 sequence (P43144 26-479): as the sequence (P43144 26-479) above
T2 sequence (Q9JLB5 25-447): as the sequence (Q9JLB5 25-447) above
T3 sequence (P43144 26-479, stated change not applied): as the sequence (P43144 26-479) above
T3 sequence (P43144+Q9JLB5 fused with the stated changes): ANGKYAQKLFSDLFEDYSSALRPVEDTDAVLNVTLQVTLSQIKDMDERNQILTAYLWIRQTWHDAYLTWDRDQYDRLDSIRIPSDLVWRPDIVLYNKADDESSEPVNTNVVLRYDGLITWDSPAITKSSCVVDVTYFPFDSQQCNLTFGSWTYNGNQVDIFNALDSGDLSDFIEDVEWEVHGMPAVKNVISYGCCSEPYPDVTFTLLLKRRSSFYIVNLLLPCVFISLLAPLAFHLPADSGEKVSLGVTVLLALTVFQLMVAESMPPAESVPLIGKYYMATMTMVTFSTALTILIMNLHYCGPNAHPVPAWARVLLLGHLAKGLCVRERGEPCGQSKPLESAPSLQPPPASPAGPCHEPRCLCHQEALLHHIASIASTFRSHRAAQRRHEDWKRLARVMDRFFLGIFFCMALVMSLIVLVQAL
T4 sequence (P43144 26-479): as the sequence (P43144 26-479) above
Chain of Chicken α10 homomeric nAChR (Q9I8C7 27-452): as the sequence (Q9I8C7 27-452) above
Chain of rat α9α10W55T receptor (Rα9-Rα10W55T) (P43144 26-479): as the sequence (P43144 26-479) above
Chain of rat α9α10W55T receptor (Rα9-Rα10W55T) (Q9JLB5 25-447 W81T): as the sequence (Q9JLB5 25-447) above, with W57T counted along it

## CN1CCC[C@H]1c1cccnc1 [Nicotine, nicotine]
[1]
  IC50: 39.4 ± 3.4 µM
[1]; oocytes expressing chicken α9α10
  Agonist activity (currents elicited): did not elicit currents
[2]; oocytes expressing rat α9α10
  Agonist activity (currents elicited): did not elicit currents

## C[N+]1(C)CCN(c2ccccc2)CC1 [DMPP]
[1]; Chicken α9α10, mean ± SEM
  Efficacy (maximal response as % of that elicited by 1 mM ACh): 32.6 ± 2.9 (5) %
[1]; [13]
  EC50: 9.8 ± 0.5 µM
[2]
  Efficacy (maximal response as % of that elicited by 1 mM ACh): 0.6 ± 0.3 (6) %
  EC50: 21.5 ± 4 µM

## CC(=O)OCC[N+](C)(C)C [ACh, acetylcholine]
[3]; Rα9-Cα10 hybrid
  EC50: 11.6 ± 2.9 µM
[4]
  EC50: ~10 µM
[1]
  EC50: 13.1 ± 2.6 µM
[5]; rat α9 co-expressed with α10x
  Imax (maximal ACh response): 269 ± 103 nA
[6]; homomeric rat α9
  Imax (maximal ACh response): 14 ± 2 nA
[7]
  EC50: 12.9 ± 1.4 µM
[8]
  EC50: 2.2 ± 0.7 µM

## C[N+](C)(C)CCOC(N)=O [Carbachol, carbachol]
[1]; Chicken α9α10, mean ± SEM
  Efficacy (maximal response as % of that elicited by 1 mM ACh): 89.8 ± 7.0 (6) %
[1]; [13]
  EC50: 150 ± 15 µM
[1]; chicken α9α10, carbachol EC50 vs ACh
  Potency relative to ACh (times lower): ~12 times
[1]; mean ± SEM
  Emax: 89 ± 7%
[2]
  Efficacy (maximal response as % of that elicited by 1 mM ACh): 75.5 ± 5.2 (5) %
  EC50: 159 ± 31.5 µM
  Emax: 75 ± 5%
[2]; rat α9α10, carbachol EC50 vs ACh
  Potency relative to ACh (times lower): ~12 times

## C[N+](C)(C)CCO [Choline, choline]
[3]; Rα9-Cα10 hybrid
  EC50: 148 ± 12.1 µM
  Efficacy (maximal response as % of responses to 1 mM ACh): 86.4 ± 2.1 (6) %
[3]; read-out: Efficacy (maximal response as % of responses to 1 mM ACh), Rα9-Cα10 hybrid
  Emax: 86 ± 2%
[9]; Cα9-Rα10 hybrid
  EC50: 333 ± 66.2 µM
  Efficacy (maximal response as % of maximal ACh response): 51.2 ± 6 (5) %
[9]; read-out: Efficacy (maximal response as % of maximal ACh response), Cα9-Rα10 hybrid
  Emax: 51 ± 6%
[10]
  Efficacy (responses to 10 mM choline as % of those elicited by 1 mM ACh): 7.4 ± 1.9 (5) %
[10]; listed as choline
  Efficacy (responses to 10 mM choline as % of those elicited by 1 mM ACh): 7 ± 2%
[11]
  Emax: 50 ± 9%
[12]
  Emax: 90 ± 6%
[1]; [13]
  EC50: 200 ± 16 µM
[1]; mean ± SEM
  Emax: 88 ± 6.7%
[2]
  Efficacy (maximal response as % of that elicited by 1 mM ACh): 37.5 ± 2.5 (9) %
  EC50: 541 ± 62 µM
  Emax: 37 ± 3%
[2]; listed as choline
  Efficacy (maximal response as % of that elicited by 1 mM ACh): 38 ± 3%
[5]; read-out: Efficacy (maximal response as % of maximal ACh response), α9α10x chimeric receptor, mean ± SEM
  Emax: 74 ± 1%
[5]; [14]
  EC50: 160 ± 7.6 µM
  Efficacy (maximal response as % of maximal ACh response): 74.3 ± 1.0 (5) %
[6]; Rat α9, mean ± SEM
  Efficacy (maximal response as % of that elicited by 1 mM ACh): 87.3 ± 6.0 (4) %
[6]; Rat α9, −70 mV, BAPTA-AM treated oocytes, mean ± SEM
  EC50: 188 ± 40 µM
[6]; read-out: Efficacy (maximal response as % of that elicited by 1 mM ACh), Rat α9, mean ± SEM
  Emax: 87 ± 6%
[7]
  EC50: 280 ± 20 µM
[7]; read-out: Efficacy (maximal response as % of that elicited by 1 mM ACh), mean ± SEM
  Emax: 73.7 ± 5.9%
[8]
  EC50: 23.2 ± 8.3 µM
[8]; read-out: Efficacy (maximal response as % of maximal ACh response), mean ± SEM
  Emax: 99.4 ± 9.5%

From PMC7892445 (Frontiers in Molecular Neuroscience, 2021)
